Values after ≈ are worked out from the molar mass of the structure shown.
How the values were obtained:
Type in all cases: cell-based
[1] = test system: Streptococcus aureus Clin-211; test: In vitro antibacterial activity, agar plate dilution method (MIC); conditions: for MIC: CLIN211, read-out: Antibacterial spectrum MIC
Procedure: (§1) The in vitro antibacterial activity of the present compound (Example 2, 4, 6, 8, 10, 12, 14, 16 and 18) was tested by the standard method of Japan Chemical Therapy Institute using agar plate dilution method which is described in CHEMOTHERAPY Vol.29, […], 1981. For an anaerobic bacteria, it was tested by the method described in CHEMOTHERAPY Vol. 27, 559-590, 1979. The minimum concentration at which the growth of a bacteria could be inhibited by the present compound was decided as MIC (μg/ml).

[2] = test system: Escherichia coli IFO 12734; test: as above; conditions: for MIC: IFO12734, read-out: Antibacterial spectrum MIC
Procedure: as §1

[3] = test system: Pseudomonas aeruginosa CSJ 1853; test: as above; conditions: for MIC: CSJ1853, read-out: Antibacterial spectrum MIC
Procedure: as §1

[4] = test system: Streptococcus Pneumoniae IID553; test: as above; conditions: for MIC: read-out: Antibacterial spectrum MIC
Procedure: as §1

[5] = test system: Streptococcus aureus JCM2874; test: as above; conditions: for MIC: read-out: Antibacterial spectrum MIC
Procedure: as §1

[6] = test system: Bacteroides fragilis GAI0675; test: In vitro antibacterial activity against anaerobic bacteria (MIC); conditions: Bacteroides fragilis GAI0675 (Table 2: Bacteroides GMI0675), anaerobic bacteria method; for MIC: read-out: Antibacterial spectrum MIC
Procedure: as §1

| SMILES | MIC [1] [µg/mL] | MIC [2] [µg/mL] | MIC [3] [µg/mL] | MIC [4] [µg/mL] | MIC [5] [µg/mL] | MIC [6] [µg/mL] | Antibacterial spectrum MIC [1] [µg/mL] | Antibacterial spectrum MIC [2] [µg/mL] | Antibacterial spectrum MIC [3] [µg/mL] | Antibacterial spectrum MIC [4] [µg/mL] | Antibacterial spectrum MIC [5] [µg/mL] | Antibacterial spectrum MIC [6] [µg/mL] |
| --- | --- | --- | --- | --- | --- | --- | --- | --- | --- | --- | --- | --- |
| Cc1c(-c2ccc3c(c2)CNC3)ccn2c(=O)c(C(=O)O)cc(C3CC3)c12 [Example 6, 1-cyclopropyl-9-methyl-8-(isoindoline-5-yl)-4-oxo-4H-quinolizine-3-carboxylic acid] | 0.125 (≈ 0.347 µM) | 0.016 (≈ 0.0444 µM) | 0.25 (≈ 0.694 µM) | 0.031 (≈ 0.086 µM) | 0.008 (≈ 0.0222 µM) | 0.031 (≈ 0.086 µM) |  |  |  |  |  |  |
| C[C@H]1COc2c(N3CCN(C)CC3)c(F)cc3c(=O)c(C(=O)O)cn1c23 [LVFX, levofloxacin, reference compound] | 4 (≈ 11.1 µM) | 0.063 (≈ 0.174 µM) | 0.5 (≈ 1.38 µM) | 1 (≈ 2.77 µM) | 0.25 (≈ 0.692 µM) | 0.5 (≈ 1.38 µM) |  |  |  |  |  |  |
| Cc1c(-c2cc(F)c3c(c2)CNC3)ccn2c(=O)c(C(=O)O)cc(C3CC3)c12 [Example 14, 1-cyclopropyl-8-(4-fluoroisoindoline-6-yl)-9-methyl-4-oxo-4H-quinolizine-3-carboxylic acid] | 0.125 (≈ 0.33 µM) | 0.031 (≈ 0.0819 µM) | 0.5 (≈ 1.32 µM) | 0.031 (≈ 0.0819 µM) | 0.008 (≈ 0.0211 µM) | 0.016 (≈ 0.0423 µM) |  |  |  |  |  |  |
| COc1cc(-c2ccn3c(=O)c(C(=O)O)cc(C4CC4)c3c2OC)cc2c1CNC2 [Example 16, 1-cyclopropyl-9-methoxy-8-(4-methoxyisoindoline-6-yl)-4-oxo-4H-quinolizine-3-carboxylic acid] | 2 (≈ 4.92 µM) | 0.5 (≈ 1.23 µM) | 8 (≈ 19.7 µM) | 0.5 (≈ 1.23 µM) | 0.125 (≈ 0.308 µM) | 0.25 (≈ 0.615 µM) |  |  |  |  |  |  |
| O=C(O)c1cc(C2CC2)c2c(OC(F)F)c(-c3ccc4c(c3)CNC4)ccn2c1=O [Example 12, 1-cyclopropyl-9-difloromethoxy-8-(isoindoline-5-yl)-4-oxo-4H-quinolizine-3-carboxylic acid] |  |  |  |  |  |  | 1 | 0.125 | 4 | 0.25 | 0.031 | 0.25 |
| COc1cc(-c2ccn3c(=O)c(C(=O)O)cc(C4CC4)c3c2C)cc2c1CNC2 [Example 18, 1-cyclopropyl-9-methyl-8-(4-methoxy-isoindoline-6-yl)-4-oxo-4H-quinolizine-3-carboxylic acid] | 0.5 (≈ 1.28 µM) | 0.125 (≈ 0.32 µM) | 2 (≈ 5.12 µM) | 0.125 (≈ 0.32 µM) | 0.031 (≈ 0.0794 µM) | 0.063 (≈ 0.161 µM) |  |  |  |  |  |  |
| Cc1c(-c2ccc3c(c2)CNC3C)ccn2c(=O)c(C(=O)O)cc(C3CC3)c12 (stereo not drawn) [Example 2, 1-cyclopropyl-9-methyl-8-(1-methylisoindoline-5-yl)-4-oxo-4H-quinolizine-3-carboxylic acid] | 0.25 (≈ 0.668 µM) | 0.031 (≈ 0.0828 µM) | 0.25 (≈ 0.668 µM) | 0.063 (≈ 0.168 µM) | 0.008 (≈ 0.0214 µM) | 0.031 (≈ 0.0828 µM) |  |  |  |  |  |  |
| COc1c(-c2ccc3c(c2)CNC3C)ccn2c(=O)c(C(=O)O)cc(C3CC3)c12 (stereo not drawn) [Example 4, 1-cyclopropyl-9-methoxy-8-(1-methylisoindoline-5-yl)-4-oxo-4H-quinolizine-3-carboxylic acid] | 1 (≈ 2.56 µM) | 0.125 (≈ 0.32 µM) | 1 (≈ 2.56 µM) | 0.25 (≈ 0.64 µM) | 0.063 (≈ 0.161 µM) | 0.25 (≈ 0.64 µM) |  |  |  |  |  |  |
| COc1c(-c2ccc3c(c2)CNC3)ccn2c(=O)c(C(=O)O)cc(C3CC3)c12 [Example 8, 1-cyclopropyl-9-methoxy-8-(isoindoline-5-yl)-4-oxo-4H-quinolizine-3-carboxylic acid] | 0.5 (≈ 1.33 µM) | 0.063 (≈ 0.167 µM) | 1 (≈ 2.66 µM) | 0.25 (≈ 0.664 µM) | 0.063 (≈ 0.167 µM) | 0.25 (≈ 0.664 µM) |  |  |  |  |  |  |
| CC1NCc2cc(-c3ccn4c(=O)c(C(=O)O)cc(C5CC5)c4c3OC(F)F)ccc21 (stereo not drawn) [Example 10, 1-cyclopropyl-9-difluoromethoxy-8-((+)-1-methylisoindoline-5-yl)-4-oxo-4H-quinolizine-3-carboxylic acid] | 1 (≈ 2.35 µM) | 0.125 (≈ 0.293 µM) | 4 (≈ 9.38 µM) | 0.25 (≈ 0.586 µM) | 0.063 (≈ 0.148 µM) | 0.5 (≈ 1.17 µM) |  |  |  |  |  |  |
